Assay results as given in ChEMBL document CHEMBL4507279, “Data for DCP probe BI-9627” (2021).
Active and inactive are the calls of the source. The rule behind the calls is not given here.

Tests used:
[1] = target: Kappa-type opioid receptor (Homo sapiens) (UniProt P41145); conditions: Compound concentration 10.0 uM
[2] = target: Histamine H2 receptor (Homo sapiens) (UniProt P25021); assay: H2/H Eurofins-Panlabs selectivity data (BI); conditions: Compound concentration 10.0 uM
[3] = target: Calcium/calmodulin-dependent protein kinase type 1D (Homo sapiens) (UniProt Q8IU85); conditions: Compound concentration 1000.0 nM
[4] = target: Muscarinic acetylcholine receptor M3 (Homo sapiens) (UniProt P20309); assay: M3/HU Eurofins-Panlabs selectivity data (BI); conditions: Compound concentration 10.0 uM
[5] = target: Glutamate receptor ionotropic, NMDA 1 (Rattus norvegicus) (UniProt P35439); assay: NMDAGLSI/RA Eurofins-Panlabs selectivity data (BI); conditions: Compound concentration 10.0 uM
[6] = target: Serine/threonine-protein kinase ULK3 (Homo sapiens) (UniProt Q6PHR2); conditions: Compound concentration 1000.0 nM
[7] = target: Glucocorticoid receptor (Homo sapiens) (UniProt P04150); assay: GLUCOCORTICO Eurofins-Panlabs selectivity data (BI); conditions: Compound concentration 10.0 uM
[8] = target: Sodium-dependent noradrenaline transporter (Homo sapiens) (UniProt P23975); assay: NETRANS/H Eurofins-Panlabs selectivity data (BI); conditions: Compound concentration 10.0 uM
[9] = target: Sodium channel alpha subunit (site 2) (Homo sapiens, UniProt P35498+P35499+Q01118+Q14524+Q15858+Q99250+Q9NY46+Q9UI33+Q9UQD0+Q9Y5Y9); assay: NA+/SITE2AG Eurofins-Panlabs selectivity data (BI); type: protein assay, Cavia porcellus; parameters: mode of action antagonist; conditions: guinea pig; compound concentration 30 uM; read-out: % Ctrl
[10] = target: Glutamate receptor ionotropic, NMDA 2A (Rattus norvegicus) (UniProt Q00959); conditions: Compound concentration 10.0 uM
[11] = target: Voltage-dependent L-type calcium channel subunit alpha-1C (diltiazem site) (Rattus norvegicus, UniProt P22002); assay: CA+/DILSI/RA Eurofins-Panlabs selectivity data (BI); conditions: compound concentration 10 uM, read-out: % Ctrl
[12] = target: P2X purinoceptor (Oryctolagus cuniculus) (UniProt G1U3D6); assay: P2X/RB Eurofins-Panlabs selectivity data (BI); conditions: Compound concentration 10.0 uM
[13] = target: Activin receptor type-2A (Homo sapiens) (UniProt P27037); conditions: Compound concentration 1000.0 nM
[14] = target: Glutamate NMDA receptor (Rattus norvegicus) (UniProt P35439+Q00959+Q00960+Q00961+Q62645+Q8VHN2+Q9R1M7); assay: NMDAAGSI/RA Eurofins-Panlabs selectivity data (BI); type: protein-complex assay; conditions: filed as agonist, Compound concentration 10.0 uM
[15] = target: High affinity nerve growth factor receptor (Homo sapiens) (UniProt P04629); conditions: Compound concentration 1000.0 nM
[16] = target: Sigma non-opioid intracellular receptor 1 (Homo sapiens) (UniProt Q99720); assay: SIGMA1/HU Eurofins-Panlabs selectivity data (BI); conditions: Compound concentration 10.0 uM
[17] = target: Phosphatidylinositol 4-phosphate 5-kinase type-1 alpha (Homo sapiens) (UniProt Q99755); conditions: Compound concentration 1000.0 nM
[18] = target: Muscarinic acetylcholine receptor M5 (Homo sapiens) (UniProt P08912); conditions: Compound concentration 10.0 uM
[19] = target: Delta-type opioid receptor (Homo sapiens) (UniProt P41143); assay: DELTA/HU Eurofins-Panlabs selectivity data (BI); conditions: Compound concentration 10.0 uM
[20] = target: Histamine H3 receptor (Homo sapiens) (UniProt Q9Y5N1); assay: H3/H Eurofins-Panlabs selectivity data (BI); conditions: Compound concentration 10.0 uM
[21] = target: Gamma-aminobutyric acid receptor subunit alpha-1 (Rattus norvegicus) (UniProt P62813); assay: GABAACENTR Eurofins-Panlabs selectivity data (BI); conditions: Compound concentration 10.0 uM
[22] = Human platelet swelling inhibition (hPSA) assay
[23] = target: Cyclin-dependent kinase 15 (Homo sapiens) (UniProt Q96Q40); conditions: Compound concentration 1000.0 nM
[24] = target: B1 bradykinin receptor (Homo sapiens) (UniProt P46663); assay: B1/H Eurofins-Panlabs selectivity data (BI); conditions: Compound concentration 10.0 uM
[25] = target: Voltage-dependent L-type calcium channel subunit alpha-1C (DHP site) (Rattus norvegicus, UniProt P22002); assay: CA+/DHPSI/RA Eurofins-Panlabs selectivity data (BI); conditions: compound concentration 10 uM, read-out: % Ctrl
[26] = target: 5-hydroxytryptamine receptor 2A (Homo sapiens, UniProt P28223); assay: GPCRScan assay: inhibition of 5-HT2A; parameters: radioligand conc. used [nm] 1.2 – 2.4, parental cells HEKT
[27] = target: T1, Alpha-1A adrenergic receptor (Homo sapiens) (UniProt P35348); assay: ALPHA1A/R Eurofins-Panlabs selectivity data (BI); conditions: Rattus norvegicus; Compound concentration 10.0 uM
T1 sequence (whole entry): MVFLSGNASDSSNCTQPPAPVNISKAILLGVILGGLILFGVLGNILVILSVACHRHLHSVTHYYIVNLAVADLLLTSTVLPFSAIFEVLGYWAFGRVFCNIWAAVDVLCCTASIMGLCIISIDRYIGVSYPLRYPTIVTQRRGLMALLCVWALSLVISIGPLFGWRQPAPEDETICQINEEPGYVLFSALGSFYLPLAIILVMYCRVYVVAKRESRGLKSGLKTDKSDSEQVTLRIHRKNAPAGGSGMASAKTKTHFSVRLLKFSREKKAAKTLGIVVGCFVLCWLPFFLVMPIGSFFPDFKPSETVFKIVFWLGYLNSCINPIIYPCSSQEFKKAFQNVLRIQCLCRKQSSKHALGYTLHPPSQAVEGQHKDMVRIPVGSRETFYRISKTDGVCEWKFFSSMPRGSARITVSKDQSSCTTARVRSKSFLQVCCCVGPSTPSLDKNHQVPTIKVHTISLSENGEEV

[28] = target: hERG (voltage-gated inwardly rectifying potassium channel KCNH2) (Homo sapiens, UniProt Q12809); assay: K+/HERG Eurofins-Panlabs selectivity data (BI); conditions: compound concentration 10 uM, read-out: % Ctrl
[29] = target: Kappa-type opioid receptor (Homo sapiens) (UniProt P41145); assay: KAPPA/HU Eurofins-Panlabs selectivity data (BI); conditions: Compound concentration 10.0 uM
[30] = target: Histamine H1 receptor (Homo sapiens) (UniProt P35367); assay: H1/H Eurofins-Panlabs selectivity data (BI); conditions: Compound concentration 10.0 uM
[31] = target: Adenosine receptor A1 (Homo sapiens) (UniProt P30542); assay: A1/HU Eurofins-Panlabs selectivity data (BI); conditions: Compound concentration 10.0 uM
[32] = target: Death-associated protein kinase 1 (Homo sapiens) (UniProt P53355); conditions: Compound concentration 1000.0 nM
[33] = target: Neuropeptide Y receptor type 1 (Homo sapiens) (UniProt P25929); assay: Y1/HU Eurofins-Panlabs selectivity data (BI); conditions: Compound concentration 10.0 uM
[34] = target: D(2) dopamine receptor (Homo sapiens) (UniProt P14416); conditions: Compound concentration 10.0 uM
[35] = target: Sigma non-opioid intracellular receptor 1 (Homo sapiens) (UniProt Q99720); conditions: Compound concentration 10.0 uM
[36] = target: Mitogen-activated protein kinase 11 (Homo sapiens) (UniProt Q15759); conditions: Compound concentration 1000.0 nM
[37] = tested on: Proto-oncogene tyrosine-protein kinase receptor Ret (Homo sapiens), P07949 [M918T]; conditions: Compound concentration 1000.0 nM

Sequence of Serine/threonine-protein kinase ULK3 (Homo sapiens) (Q6PHR2 whole entry): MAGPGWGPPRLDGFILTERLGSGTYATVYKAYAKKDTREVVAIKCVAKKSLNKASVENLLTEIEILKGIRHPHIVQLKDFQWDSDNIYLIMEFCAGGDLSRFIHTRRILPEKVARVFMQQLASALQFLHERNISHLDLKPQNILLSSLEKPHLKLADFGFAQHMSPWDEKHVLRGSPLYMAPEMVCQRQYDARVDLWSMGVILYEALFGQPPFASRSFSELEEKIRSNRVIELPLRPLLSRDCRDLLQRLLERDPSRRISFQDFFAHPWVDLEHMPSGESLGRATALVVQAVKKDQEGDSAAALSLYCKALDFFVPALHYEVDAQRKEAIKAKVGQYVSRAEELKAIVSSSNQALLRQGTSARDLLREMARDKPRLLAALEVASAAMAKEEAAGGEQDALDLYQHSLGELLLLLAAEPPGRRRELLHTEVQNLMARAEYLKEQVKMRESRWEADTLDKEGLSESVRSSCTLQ
Sequence of Kappa-type opioid receptor (Homo sapiens) (P41145 whole entry): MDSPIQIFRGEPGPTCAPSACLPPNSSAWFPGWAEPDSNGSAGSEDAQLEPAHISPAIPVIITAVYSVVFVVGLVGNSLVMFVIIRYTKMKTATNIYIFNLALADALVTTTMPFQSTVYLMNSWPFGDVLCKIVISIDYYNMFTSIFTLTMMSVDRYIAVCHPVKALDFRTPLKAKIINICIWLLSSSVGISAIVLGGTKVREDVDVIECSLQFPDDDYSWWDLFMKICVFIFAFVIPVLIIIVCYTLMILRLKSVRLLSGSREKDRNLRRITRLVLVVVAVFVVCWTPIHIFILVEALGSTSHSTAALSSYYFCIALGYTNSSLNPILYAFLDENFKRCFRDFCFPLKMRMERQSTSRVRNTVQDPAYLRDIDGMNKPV
Sequence of Activin receptor type-2A (Homo sapiens) (P27037 whole entry): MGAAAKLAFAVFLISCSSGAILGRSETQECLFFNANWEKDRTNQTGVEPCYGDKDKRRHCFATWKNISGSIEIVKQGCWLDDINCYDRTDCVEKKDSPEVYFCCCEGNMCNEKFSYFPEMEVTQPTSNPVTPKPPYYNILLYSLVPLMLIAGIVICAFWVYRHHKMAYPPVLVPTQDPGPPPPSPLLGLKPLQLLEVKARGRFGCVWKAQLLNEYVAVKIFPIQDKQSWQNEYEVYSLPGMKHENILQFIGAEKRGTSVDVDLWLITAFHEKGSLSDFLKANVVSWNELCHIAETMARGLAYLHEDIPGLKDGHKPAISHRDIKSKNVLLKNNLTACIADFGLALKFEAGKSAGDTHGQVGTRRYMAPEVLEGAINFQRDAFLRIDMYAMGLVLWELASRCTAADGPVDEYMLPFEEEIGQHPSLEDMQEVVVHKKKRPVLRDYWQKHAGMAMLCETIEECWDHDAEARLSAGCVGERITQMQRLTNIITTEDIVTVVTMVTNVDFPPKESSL
Sequence of Sigma non-opioid intracellular receptor 1 (Homo sapiens) (Q99720 whole entry): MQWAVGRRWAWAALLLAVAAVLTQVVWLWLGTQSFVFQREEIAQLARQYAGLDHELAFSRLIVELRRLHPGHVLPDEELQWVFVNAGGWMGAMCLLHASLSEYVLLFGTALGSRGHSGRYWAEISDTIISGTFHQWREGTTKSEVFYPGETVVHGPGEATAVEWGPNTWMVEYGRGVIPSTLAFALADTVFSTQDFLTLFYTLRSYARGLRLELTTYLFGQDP
Sequence of Muscarinic acetylcholine receptor M5 (Homo sapiens) (P08912 whole entry): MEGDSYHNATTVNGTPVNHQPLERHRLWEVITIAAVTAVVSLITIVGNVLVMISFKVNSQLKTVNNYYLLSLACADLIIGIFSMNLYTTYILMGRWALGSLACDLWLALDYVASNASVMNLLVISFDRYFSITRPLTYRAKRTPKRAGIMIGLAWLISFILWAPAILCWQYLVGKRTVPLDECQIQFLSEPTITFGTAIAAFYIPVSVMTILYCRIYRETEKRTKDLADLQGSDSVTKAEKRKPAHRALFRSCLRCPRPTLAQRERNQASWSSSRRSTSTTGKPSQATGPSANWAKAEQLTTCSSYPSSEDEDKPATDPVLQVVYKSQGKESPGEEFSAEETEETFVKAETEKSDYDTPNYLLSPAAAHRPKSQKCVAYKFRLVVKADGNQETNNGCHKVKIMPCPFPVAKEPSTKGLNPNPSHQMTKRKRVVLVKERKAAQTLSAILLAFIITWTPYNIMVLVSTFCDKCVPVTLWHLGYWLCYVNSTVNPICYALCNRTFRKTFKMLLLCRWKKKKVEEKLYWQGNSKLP
Sequence of Death-associated protein kinase 1 (Homo sapiens) (P53355 whole entry, looked up): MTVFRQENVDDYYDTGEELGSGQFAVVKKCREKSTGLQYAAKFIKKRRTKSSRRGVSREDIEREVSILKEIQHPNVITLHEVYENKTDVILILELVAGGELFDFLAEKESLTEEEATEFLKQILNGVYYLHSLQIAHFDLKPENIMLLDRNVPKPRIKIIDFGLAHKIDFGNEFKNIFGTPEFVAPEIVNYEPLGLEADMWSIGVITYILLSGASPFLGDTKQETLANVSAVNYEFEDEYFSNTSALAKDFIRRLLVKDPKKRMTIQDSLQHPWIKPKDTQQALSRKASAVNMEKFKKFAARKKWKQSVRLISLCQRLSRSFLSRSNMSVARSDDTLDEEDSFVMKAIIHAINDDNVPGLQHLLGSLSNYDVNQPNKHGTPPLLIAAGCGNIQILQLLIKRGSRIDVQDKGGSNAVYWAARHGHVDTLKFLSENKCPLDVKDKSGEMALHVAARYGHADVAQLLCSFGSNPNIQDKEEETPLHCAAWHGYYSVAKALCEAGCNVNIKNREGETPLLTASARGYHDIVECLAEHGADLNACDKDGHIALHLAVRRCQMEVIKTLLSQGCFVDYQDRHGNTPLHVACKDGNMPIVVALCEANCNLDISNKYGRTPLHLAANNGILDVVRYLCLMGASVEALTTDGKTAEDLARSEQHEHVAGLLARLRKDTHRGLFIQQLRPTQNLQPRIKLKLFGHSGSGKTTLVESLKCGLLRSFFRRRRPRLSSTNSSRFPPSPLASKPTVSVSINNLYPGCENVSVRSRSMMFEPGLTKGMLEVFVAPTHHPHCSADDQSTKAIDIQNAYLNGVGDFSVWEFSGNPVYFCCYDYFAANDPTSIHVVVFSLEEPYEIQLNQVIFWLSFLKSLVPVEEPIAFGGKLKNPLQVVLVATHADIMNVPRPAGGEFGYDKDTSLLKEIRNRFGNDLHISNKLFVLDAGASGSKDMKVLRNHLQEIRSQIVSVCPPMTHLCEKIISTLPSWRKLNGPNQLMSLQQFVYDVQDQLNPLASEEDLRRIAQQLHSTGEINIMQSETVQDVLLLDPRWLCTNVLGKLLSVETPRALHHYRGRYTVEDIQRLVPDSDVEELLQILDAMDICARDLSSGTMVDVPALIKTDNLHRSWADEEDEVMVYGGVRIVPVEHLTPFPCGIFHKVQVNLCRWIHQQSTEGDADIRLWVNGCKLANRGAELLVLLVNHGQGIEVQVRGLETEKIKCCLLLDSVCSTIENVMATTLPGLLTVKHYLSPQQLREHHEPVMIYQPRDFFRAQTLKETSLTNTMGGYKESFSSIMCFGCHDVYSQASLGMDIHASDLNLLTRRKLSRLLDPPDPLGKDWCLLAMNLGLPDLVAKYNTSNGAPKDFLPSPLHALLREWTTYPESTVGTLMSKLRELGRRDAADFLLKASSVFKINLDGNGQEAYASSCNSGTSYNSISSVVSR
Sequence of High affinity nerve growth factor receptor (Homo sapiens) (P04629 33-796 limits assumed): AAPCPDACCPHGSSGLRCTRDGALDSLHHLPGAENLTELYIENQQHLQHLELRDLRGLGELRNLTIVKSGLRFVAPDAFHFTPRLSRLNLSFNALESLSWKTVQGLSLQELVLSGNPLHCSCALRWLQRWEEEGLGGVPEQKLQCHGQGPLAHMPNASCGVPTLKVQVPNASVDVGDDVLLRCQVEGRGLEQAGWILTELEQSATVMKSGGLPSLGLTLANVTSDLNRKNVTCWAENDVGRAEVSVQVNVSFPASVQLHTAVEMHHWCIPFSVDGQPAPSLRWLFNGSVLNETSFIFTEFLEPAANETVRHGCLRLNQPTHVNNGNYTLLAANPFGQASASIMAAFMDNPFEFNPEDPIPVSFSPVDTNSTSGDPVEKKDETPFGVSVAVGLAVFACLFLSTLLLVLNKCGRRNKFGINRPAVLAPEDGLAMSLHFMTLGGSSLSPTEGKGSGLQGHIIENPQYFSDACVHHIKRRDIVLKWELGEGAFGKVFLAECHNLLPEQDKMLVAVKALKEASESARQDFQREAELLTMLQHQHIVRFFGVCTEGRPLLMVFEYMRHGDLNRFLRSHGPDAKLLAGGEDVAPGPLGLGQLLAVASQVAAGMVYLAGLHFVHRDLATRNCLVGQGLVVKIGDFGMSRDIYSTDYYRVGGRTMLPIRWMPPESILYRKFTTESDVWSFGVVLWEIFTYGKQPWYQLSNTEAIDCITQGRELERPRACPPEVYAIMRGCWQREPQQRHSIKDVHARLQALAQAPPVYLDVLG
Sequence of Phosphatidylinositol 4-phosphate 5-kinase type-1 alpha (Homo sapiens) (Q99755 whole entry): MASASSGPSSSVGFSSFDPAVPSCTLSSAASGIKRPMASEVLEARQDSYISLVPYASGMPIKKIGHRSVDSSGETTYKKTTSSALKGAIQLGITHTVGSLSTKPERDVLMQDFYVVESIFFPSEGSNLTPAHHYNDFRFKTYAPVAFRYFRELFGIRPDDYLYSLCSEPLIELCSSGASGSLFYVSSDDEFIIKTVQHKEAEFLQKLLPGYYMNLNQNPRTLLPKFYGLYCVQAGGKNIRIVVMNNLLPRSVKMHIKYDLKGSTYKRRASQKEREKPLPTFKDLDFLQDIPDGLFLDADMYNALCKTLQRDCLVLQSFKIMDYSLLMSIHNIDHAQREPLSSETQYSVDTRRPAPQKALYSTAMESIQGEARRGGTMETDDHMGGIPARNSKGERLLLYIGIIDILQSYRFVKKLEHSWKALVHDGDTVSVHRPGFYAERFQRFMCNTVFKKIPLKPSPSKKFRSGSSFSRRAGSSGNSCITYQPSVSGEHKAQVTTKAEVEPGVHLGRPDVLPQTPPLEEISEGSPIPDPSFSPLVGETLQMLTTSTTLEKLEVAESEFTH

CC(=O)N1CCC(c2ccc(C(=O)NC(=N)N)cc2C(F)(F)F)CC1 [BI 9627]
inhibition [1]: 9.26% | residual activity [2]: 103% | residual activity [3]: 95% | residual activity [4]: 79% | residual activity [5]: 109% | residual activity [6]: 80% | residual activity [7]: 98% | residual activity [8]: 91% | activity at 30 µM [9]: 100% (not active) | residual activity [10]: 96% | activity at 10 µM [11]: 68% (not active) | residual activity [12]: 98% | residual activity [13]: 100% | residual activity [14]: 90% | residual activity [15]: 100% | residual activity [16]: 114% | residual activity [17]: 94% | inhibition [18]: -8.36% | residual activity [19]: 113% | residual activity [20]: 109% | residual activity [21]: 92% | IC50 [22]: 0.031 µM (active) | residual activity [23]: 100% | residual activity [24]: 97% | activity at 10 µM [25]: 77% (not active) | Ki [26]: 10 µM | residual activity [27]: 86% | activity at 10 µM [28]: 105% (not active) | residual activity [29]: 74% | residual activity [30]: 98% | residual activity [31]: 58% | residual activity [32]: 100% | residual activity [33]: 94%

CC(=O)N1CCC(c2ccc(C(=O)NC3=NCCN3)cc2C(F)(F)F)CC1 [BI 0054]
residual activity [3]: 100% | residual activity [6]: 89% | residual activity [13]: 100% | inhibition [34]: -4.57% | residual activity [15]: 100% | inhibition [35]: -8.45% | residual activity [36]: 98% | residual activity [17]: 100% | residual activity [37]: 90% | inhibition [18]: 14.9% | residual activity [23]: 100% | residual activity [32]: 100%
